Test results as given in patent publication US7446079B2, “Perfumes for rinse-off systems” (Givaudan Fragrances Corporation, priority 2005, dated 2008).

Assay: GC-MS headspace release profile of Tropical Fruit perfume in shampoo, 1/100 dilution in water
Type: physicochemical
Method: A 10 gram sample of formulation and fragrance was added to an empty 1000 ml pyrex beaker. This beaker was then filled with 1000 ml of 120 F tap water. Beaker with diluted shampoo sample was then immediately placed into a semi-enclosed plexiglass chamber.
Headspace Sampling: Once beaker was placed into chamber a Carboxan SPME field fiber was held at the top-side opening of the chamber over the beaker containing the sample. […] […] Top of plexiglass chamber was held open for entire 5 minutes of headspace sampling.

Compound: C=CC(C)(O)CCC=C(C)CC (mixture of isomers) [ETHYL LINALOOL]
- GC Abundance (headspace at 20 seconds): 5000
- GC Abundance (headspace at 30 seconds): 10000
- GC Abundance (headspace at 40 seconds): 10000
- GC Abundance (headspace at 50 seconds): 10000

Compound: CC(C)=CCCC(C)CCCC(C)C=O (centres unmarked) [ADOXAL, 2,6,10-Trimethyl-9-undecenal]
- GC Abundance (headspace at 40 seconds): 300
- GC Abundance (headspace at 50 seconds): 3000

Compound: CCCCCC1CCC(=O)O1 (centres unmarked) [ALDEHYDE C-18]
- GC Abundance (headspace at 20 seconds): 2000
- GC Abundance (headspace at 30 seconds): 2000
- GC Abundance (headspace at 40 seconds): 4000
- GC Abundance (headspace at 50 seconds): 4000

Compound: C=CCOC(=O)CCCCCC [ALLYL HEPTOATE]
- GC Abundance (headspace at 20 seconds): 4000
- GC Abundance (headspace at 30 seconds): 10000
- GC Abundance (headspace at 40 seconds): 12000
- GC Abundance (headspace at 50 seconds): 12000

Compound: CC1(C)CCC[C@]2(C)[C@H]3CCO[C@]3(C)CC[C@@H]12 [AMBROXAN]
- GC Abundance (headspace at 50 seconds): 1000

Compound: CC/C(=C\CC1CC=C(C)C1(C)C)CO (centres unmarked) [BACDANOL]
- GC Abundance (headspace at 40 seconds): 100
- GC Abundance (headspace at 50 seconds): 5000

Compound: CC(=O)OCc1ccccc1 [BENZYL ACETATE]
- GC Abundance (headspace at 20 seconds): 12000
- GC Abundance (headspace at 30 seconds): 17000
- GC Abundance (headspace at 40 seconds): 18000
- GC Abundance (headspace at 50 seconds): 18000

Compound: OCc1ccccc1 [BENZYL ALCOHOL]
- GC Abundance (headspace at 40 seconds): 50
- GC Abundance (headspace at 50 seconds): 100

Compound: CCC(=O)OCc1ccccc1 [BENZYL PROPIONATE]
- GC Abundance (headspace at 20 seconds): 2000
- GC Abundance (headspace at 30 seconds): 6000
- GC Abundance (headspace at 40 seconds): 6000
- GC Abundance (headspace at 50 seconds): 6000

Compound: Cc1ccc2c(c1)OCC(=O)CO2 [CALONE]
- GC Abundance (headspace at 50 seconds): 1000

Compound: CC/C=C\CCO [CIS-3-HEXEN-1-OL]
- GC Abundance (headspace at 20 seconds): 14000
- GC Abundance (headspace at 30 seconds): 14000
- GC Abundance (headspace at 40 seconds): 14000
- GC Abundance (headspace at 50 seconds): 14000

Compound: CC(C)=CCCC(C)CCO (centres unmarked) [CITRONELLOL AJ, FCC, CITRONELLOL]
- GC Abundance (headspace at 20 seconds): 7000
- GC Abundance (headspace at 30 seconds): 7000
- GC Abundance (headspace at 40 seconds): 7000
- GC Abundance (headspace at 50 seconds): 7000

Compound: CCC(C)(O)CCC=C(C)C (centres unmarked) [DIHYDROLINALOOL]
- GC Abundance (headspace at 20 seconds): 3000
- GC Abundance (headspace at 30 seconds): 3000
- GC Abundance (headspace at 40 seconds): 3000
- GC Abundance (headspace at 50 seconds): 3000

Compound: C=CC(C)CCCC(C)(C)O (centres unmarked) [DIHYDROMYRCENOL]
- GC Abundance (headspace at 10 seconds): 500
- GC Abundance (headspace at 20 seconds): 15000
- GC Abundance (headspace at 30 seconds): 15000
- GC Abundance (headspace at 40 seconds): 15000
- GC Abundance (headspace at 50 seconds): 15000

Compound: CC(=O)OC(C)(C)Cc1ccccc1 [DIMETHYL BENZYL CARBINYL ACETATE]
- GC Abundance (headspace at 30 seconds): 2000
- GC Abundance (headspace at 40 seconds): 8000
- GC Abundance (headspace at 50 seconds): 8000

Compound: O=C1CCCCCCCCCCCC(=O)OCCO1 [ETHYLENE BRASSYLATE]
- GC Abundance (headspace at 50 seconds): 20

Compound: O=C1CCCCCCCCCCCCCCO1 [EXALTOLIDE TOTAL]
- GC Abundance (headspace at 50 seconds): 50

Compound: CC(C)c1cccc(C(C)CC=O)c1 (centres unmarked) [FLORHYDRAL]
- GC Abundance (headspace at 40 seconds): 9000
- GC Abundance (headspace at 50 seconds): 10000

Compound: CC(C)CC1CC(C)(O)CCO1 (centres unmarked) [FLOROL]
- GC Abundance (headspace at 40 seconds): 10000
- GC Abundance (headspace at 50 seconds): 15000

Compound: CC(C=O)Cc1ccc2c(c1)OCO2 (centres unmarked) [HELIONAL]
- GC Abundance (headspace at 40 seconds): 500
- GC Abundance (headspace at 50 seconds): 5000

Compound: CC/C=C\CCOC(=O)OC [LIFFAROME]
- GC Abundance (headspace at 20 seconds): 3000
- GC Abundance (headspace at 30 seconds): 3000
- GC Abundance (headspace at 40 seconds): 3000
- GC Abundance (headspace at 50 seconds): 3000

Compound: CC1OC(C)C2Cc3ccccc3C2O1 (centres unmarked) [MAGNOLAN/CORPS 719]
- GC Abundance (headspace at 40 seconds): 1000
- GC Abundance (headspace at 50 seconds): 3000
